In data set [1] the target is Coagulation factor IX (Homo sapiens, UniProt P00740). The experiment in a line: Binding affinity to human factor 9a assessed as release of p-nitroaniline after 10 to 120 mins by spectrophotometric analysis.
Data set [2] has as its system Plasma. Kind of data set: Anticoagulant activity in human plasma assessed as concentration required to inhibit double prothrombin time. The class given is functional.
Data set [3] has as its target Coagulation factor XI (Homo sapiens, UniProt P03951). The experiment in a line: Binding affinity to human factor 11a assessed as release of p-nitroaniline after 10 to 120 mins by spectrophotometric analysis.
Data set [4] in a line: Binding affinity to New Zealand White rabbit factor 11a assessed as release of p-nitroaniline after 10 to 120 mins by spectrophotometric analysis. On the set-up: species or system Oryctolagus cuniculus.
Data set [5] concerns the target Plasminogen (Homo sapiens, UniProt P00747). Kind of data set: Binding affinity to human plasmin assessed as release of p-nitroaniline after 10 to 120 mins by spectrophotometric analysis.
The target in data set [6] is Plasma kallikrein (Homo sapiens, UniProt P03952). The experiment in a line: Binding affinity to human plasma kallikrein assessed as release of p-nitroaniline after 10 to 120 mins by spectrophotometric analysis.
Sequence of Plasma kallikrein (P03952 20-390 limits assumed): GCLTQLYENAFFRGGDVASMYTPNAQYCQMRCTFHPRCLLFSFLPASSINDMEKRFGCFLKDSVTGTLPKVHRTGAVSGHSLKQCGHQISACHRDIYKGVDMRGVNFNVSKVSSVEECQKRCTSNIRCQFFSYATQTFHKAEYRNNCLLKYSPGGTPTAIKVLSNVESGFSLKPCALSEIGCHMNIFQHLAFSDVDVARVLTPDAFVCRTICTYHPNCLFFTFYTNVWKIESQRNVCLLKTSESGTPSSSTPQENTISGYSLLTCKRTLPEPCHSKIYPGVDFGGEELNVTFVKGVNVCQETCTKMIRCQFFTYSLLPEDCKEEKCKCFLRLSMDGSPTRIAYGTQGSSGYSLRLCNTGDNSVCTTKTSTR
Sequence of Plasma kallikrein (P03952 391-638 limits assumed): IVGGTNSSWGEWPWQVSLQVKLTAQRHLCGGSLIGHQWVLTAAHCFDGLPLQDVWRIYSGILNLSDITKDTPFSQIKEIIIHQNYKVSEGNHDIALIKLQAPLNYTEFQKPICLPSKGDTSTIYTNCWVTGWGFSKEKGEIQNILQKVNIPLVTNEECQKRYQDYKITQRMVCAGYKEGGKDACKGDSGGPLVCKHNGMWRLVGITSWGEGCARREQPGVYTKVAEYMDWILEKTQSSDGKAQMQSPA
Data set [7] concerns the target Tissue-type plasminogen activator (Homo sapiens, UniProt P00750). Kind of data set: Binding affinity to human tPA assessed as release of p-nitroaniline after 10 to 120 mins by spectrophotometric analysis.
A short description of data set [8]: Binding affinity to New Zealand White rabbit thrombin assessed as release of p-nitroaniline after 10 to 120 mins by spectrophotometric analysis. Also on record: species or system Oryctolagus cuniculus.
Data set [9] is described as follows: Binding affinity to New Zealand White rabbit factor 7a assessed as release of p-nitroaniline after 10 to 120 mins by spectrophotometric analysis. On the set-up: species or system Oryctolagus cuniculus.
The target of data set [10] is Coagulation factor X (Homo sapiens, UniProt P00742). Kind of data set: Binding affinity to human factor 10a assessed as release of p-nitroaniline after 10 to 120 mins by spectrophotometric analysis.
Sequence of Coagulation factor X (Homo sapiens, UniProt P00742) (P00742 41-179 limits assumed): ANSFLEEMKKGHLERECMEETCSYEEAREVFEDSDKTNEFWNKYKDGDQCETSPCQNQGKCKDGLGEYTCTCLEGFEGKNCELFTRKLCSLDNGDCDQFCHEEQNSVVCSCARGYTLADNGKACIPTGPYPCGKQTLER
Sequence of Coagulation factor X (Homo sapiens, UniProt P00742) (P00742 235-488 limits assumed): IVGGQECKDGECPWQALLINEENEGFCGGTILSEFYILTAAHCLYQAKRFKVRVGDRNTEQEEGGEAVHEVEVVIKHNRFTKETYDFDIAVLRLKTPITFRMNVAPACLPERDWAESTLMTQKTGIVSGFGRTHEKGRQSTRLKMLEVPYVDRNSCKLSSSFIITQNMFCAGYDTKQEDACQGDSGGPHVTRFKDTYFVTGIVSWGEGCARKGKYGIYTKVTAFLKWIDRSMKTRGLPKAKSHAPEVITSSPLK
Data set [11] is described as follows: Binding affinity to human chymotrypsin assessed as release of p-nitroaniline after 10 to 120 mins by spectrophotometric analysis.
Data set [12] addresses Trypsin (Homo sapiens, UniProt P07477+P07478+P35030). The experiment in a line: Binding affinity to human trypsin assessed as release of p-nitroaniline after 10 to 120 mins by spectrophotometric analysis. The class given is protein assay.
In data set [13] the target is Prothrombin (Homo sapiens, UniProt P00734). The experiment in a line: Binding affinity to human thrombin assessed as release of p-nitroaniline after 10 to 120 mins by spectrophotometric analysis.
For data set [14], the system named is Oryctolagus cuniculus. The experiment in a line: Toxicity in rabbit arteriovenous-shunt thrombosis model assessed as increase in bleeding time compound administered as single bolus dose followed by five continuous infusion dose. The class given is organism-based. To be noted: in vivo, iv.
Data set [15] addresses Vitamin K-dependent protein C (Homo sapiens, UniProt P04070). The experiment in a line: Binding affinity to human activated protein C assessed as release of p-nitroaniline after 10 to 120 mins by spectrophotometric analysis.
A short description of data set [16]: Binding affinity to New Zealand White rabbit plasma kallikrein assessed as release of p-nitroaniline after 10 to 120 mins by spectrophotometric analysis. The class given is cell-free, Oryctolagus cuniculus.
Data set [17] deals with Plasma. The experiment in a line: Anticoagulant activity in human plasma assessed as concentration required to double activated partial thromboplastin time. The class given is functional.
Data set [18] deals with Plasma. Kind of data set: Anticoagulant activity in New Zealand White rabbit plasma assessed as concentration required to double activated partial thromboplastin time. The class given is functional, Oryctolagus cuniculus.
Data set [19] has as its target T1, Coagulation factor X (Oryctolagus cuniculus, UniProt O19045).
T1 sequence (O19045 whole entry): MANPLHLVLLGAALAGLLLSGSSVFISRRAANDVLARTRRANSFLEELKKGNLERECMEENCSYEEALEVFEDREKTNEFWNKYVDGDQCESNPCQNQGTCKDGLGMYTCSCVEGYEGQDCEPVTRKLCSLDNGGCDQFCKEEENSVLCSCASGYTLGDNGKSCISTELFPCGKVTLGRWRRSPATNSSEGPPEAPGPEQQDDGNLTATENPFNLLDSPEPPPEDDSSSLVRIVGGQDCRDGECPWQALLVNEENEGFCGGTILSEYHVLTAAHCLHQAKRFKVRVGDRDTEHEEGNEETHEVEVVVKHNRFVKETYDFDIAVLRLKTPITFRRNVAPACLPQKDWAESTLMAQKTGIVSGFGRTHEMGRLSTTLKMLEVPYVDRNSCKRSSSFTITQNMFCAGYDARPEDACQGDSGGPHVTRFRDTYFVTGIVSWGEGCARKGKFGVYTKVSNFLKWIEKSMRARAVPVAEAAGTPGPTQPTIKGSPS
The experiment in a line: Binding affinity to New Zealand White rabbit factor 10a assessed as release of p-nitroaniline after 10 to 120 mins by spectrophotometric analysis.

The target in data set [20] is Urokinase-type plasminogen activator (Homo sapiens, UniProt P00749). Kind of data set: Binding affinity to human urokinase assessed as release of p-nitroaniline after 10 to 120 mins by spectrophotometric analysis.
The target of data set [21] is T2, Coagulation factor VII (Homo sapiens, UniProt P08709).
T2 sequence (P08709 whole entry): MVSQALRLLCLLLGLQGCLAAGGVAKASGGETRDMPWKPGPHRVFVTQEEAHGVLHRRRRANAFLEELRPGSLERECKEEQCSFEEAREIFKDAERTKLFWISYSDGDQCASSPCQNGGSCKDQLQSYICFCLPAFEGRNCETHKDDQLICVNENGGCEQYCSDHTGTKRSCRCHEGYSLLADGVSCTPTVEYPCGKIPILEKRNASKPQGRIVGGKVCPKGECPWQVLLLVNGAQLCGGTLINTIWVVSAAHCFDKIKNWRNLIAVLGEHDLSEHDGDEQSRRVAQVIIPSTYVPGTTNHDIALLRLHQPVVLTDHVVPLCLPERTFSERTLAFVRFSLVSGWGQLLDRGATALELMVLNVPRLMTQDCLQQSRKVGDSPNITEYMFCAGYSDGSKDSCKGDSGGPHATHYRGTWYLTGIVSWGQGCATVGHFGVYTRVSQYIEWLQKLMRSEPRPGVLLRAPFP
The experiment in a line: Binding affinity to human factor 7a assessed as release of p-nitroaniline after 10 to 120 mins by spectrophotometric analysis.

The subject of data set [22] is Oryctolagus cuniculus. The experiment in a line: Antithrombotic activity in rabbit arteriovenous-shunt thrombosis model assessed as inhibition of clot formation compound administered as single bolus dose followed by five continuous infusion dose. The class given is functional.

Sequence of Coagulation factor IX (P00740 47-191 limits assumed): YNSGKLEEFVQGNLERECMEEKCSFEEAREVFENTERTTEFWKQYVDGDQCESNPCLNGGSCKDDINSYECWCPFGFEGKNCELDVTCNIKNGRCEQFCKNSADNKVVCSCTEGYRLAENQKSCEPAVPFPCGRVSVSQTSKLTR
Sequence of Coagulation factor IX (P00740 227-461 limits assumed): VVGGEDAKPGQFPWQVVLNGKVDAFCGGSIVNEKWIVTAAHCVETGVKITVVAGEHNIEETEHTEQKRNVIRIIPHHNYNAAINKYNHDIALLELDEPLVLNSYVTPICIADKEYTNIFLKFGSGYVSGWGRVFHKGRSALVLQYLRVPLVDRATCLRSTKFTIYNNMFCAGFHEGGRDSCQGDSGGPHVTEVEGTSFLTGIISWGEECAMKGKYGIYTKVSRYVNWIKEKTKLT
Sequence of Plasminogen (P00747 97-580 limits assumed): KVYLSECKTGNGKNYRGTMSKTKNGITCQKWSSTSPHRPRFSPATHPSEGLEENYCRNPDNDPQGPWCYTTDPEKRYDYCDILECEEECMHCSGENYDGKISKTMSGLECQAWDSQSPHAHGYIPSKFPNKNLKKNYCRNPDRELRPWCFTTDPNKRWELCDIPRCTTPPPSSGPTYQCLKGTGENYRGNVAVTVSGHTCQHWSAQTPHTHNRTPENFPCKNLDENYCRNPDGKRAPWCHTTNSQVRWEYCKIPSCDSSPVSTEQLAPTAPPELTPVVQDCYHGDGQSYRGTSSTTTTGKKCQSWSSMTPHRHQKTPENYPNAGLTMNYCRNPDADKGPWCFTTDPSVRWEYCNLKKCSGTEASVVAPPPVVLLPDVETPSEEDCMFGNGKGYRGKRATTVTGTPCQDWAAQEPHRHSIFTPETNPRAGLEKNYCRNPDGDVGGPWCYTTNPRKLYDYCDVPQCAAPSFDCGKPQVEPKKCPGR
Sequence of Plasminogen (P00747 581-810 limits assumed): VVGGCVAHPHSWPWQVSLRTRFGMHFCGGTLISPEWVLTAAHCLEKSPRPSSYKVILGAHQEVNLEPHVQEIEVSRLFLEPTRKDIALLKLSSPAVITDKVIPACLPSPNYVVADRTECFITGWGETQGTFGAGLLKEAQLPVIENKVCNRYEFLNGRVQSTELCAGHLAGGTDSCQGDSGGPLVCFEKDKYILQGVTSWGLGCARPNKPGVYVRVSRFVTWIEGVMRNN
Sequence of Vitamin K-dependent protein C (P04070 43-197 limits assumed): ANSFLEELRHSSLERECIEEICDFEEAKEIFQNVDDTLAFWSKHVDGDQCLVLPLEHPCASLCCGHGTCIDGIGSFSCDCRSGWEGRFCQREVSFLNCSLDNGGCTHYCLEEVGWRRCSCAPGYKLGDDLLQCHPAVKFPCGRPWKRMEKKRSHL
Sequence of Vitamin K-dependent protein C (P04070 212-461 limits assumed): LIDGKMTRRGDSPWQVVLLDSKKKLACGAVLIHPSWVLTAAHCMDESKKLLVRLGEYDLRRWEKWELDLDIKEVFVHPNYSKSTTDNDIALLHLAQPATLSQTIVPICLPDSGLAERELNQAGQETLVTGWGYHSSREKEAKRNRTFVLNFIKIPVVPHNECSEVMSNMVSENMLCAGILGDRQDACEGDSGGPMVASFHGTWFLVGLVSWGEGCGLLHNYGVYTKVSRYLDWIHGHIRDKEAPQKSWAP
Sequence of Tissue-type plasminogen activator (P00750 whole entry): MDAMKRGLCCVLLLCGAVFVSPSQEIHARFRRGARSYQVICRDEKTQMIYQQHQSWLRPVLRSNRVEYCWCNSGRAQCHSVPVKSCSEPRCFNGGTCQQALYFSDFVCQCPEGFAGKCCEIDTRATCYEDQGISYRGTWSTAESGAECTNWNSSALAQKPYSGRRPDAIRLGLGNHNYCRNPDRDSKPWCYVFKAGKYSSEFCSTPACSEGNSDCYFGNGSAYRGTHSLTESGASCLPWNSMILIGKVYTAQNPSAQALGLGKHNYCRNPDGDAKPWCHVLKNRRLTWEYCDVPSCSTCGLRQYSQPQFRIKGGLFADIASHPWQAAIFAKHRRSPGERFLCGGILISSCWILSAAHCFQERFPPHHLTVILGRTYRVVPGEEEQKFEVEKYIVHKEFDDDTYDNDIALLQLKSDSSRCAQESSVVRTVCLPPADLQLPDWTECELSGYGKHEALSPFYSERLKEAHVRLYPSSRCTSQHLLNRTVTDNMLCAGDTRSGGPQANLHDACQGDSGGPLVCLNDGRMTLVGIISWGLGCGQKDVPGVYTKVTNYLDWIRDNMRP
Sequence of Coagulation factor XI (P03951 19-387 limits assumed): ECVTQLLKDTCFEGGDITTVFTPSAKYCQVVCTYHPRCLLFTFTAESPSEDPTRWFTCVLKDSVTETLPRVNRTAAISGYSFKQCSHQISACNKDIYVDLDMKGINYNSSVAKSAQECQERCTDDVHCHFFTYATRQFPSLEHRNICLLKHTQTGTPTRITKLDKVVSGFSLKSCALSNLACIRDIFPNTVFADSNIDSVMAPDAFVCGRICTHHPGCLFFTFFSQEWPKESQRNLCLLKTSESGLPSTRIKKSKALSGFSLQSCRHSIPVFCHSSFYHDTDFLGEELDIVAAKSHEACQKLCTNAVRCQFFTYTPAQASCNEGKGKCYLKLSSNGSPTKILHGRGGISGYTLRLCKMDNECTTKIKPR
Sequence of Coagulation factor XI (P03951 388-625 limits assumed): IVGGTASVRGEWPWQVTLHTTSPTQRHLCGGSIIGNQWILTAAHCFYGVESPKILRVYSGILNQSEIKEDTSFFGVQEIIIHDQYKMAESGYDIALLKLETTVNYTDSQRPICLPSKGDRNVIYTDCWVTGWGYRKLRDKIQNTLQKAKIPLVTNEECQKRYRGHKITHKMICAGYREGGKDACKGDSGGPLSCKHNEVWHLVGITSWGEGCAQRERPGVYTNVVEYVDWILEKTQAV

`CC(C)CC(=O)Nc1cc(-c2ccc(C(N)=O)cc2C(=O)O)cc(C2CC(C)(c3ccccc3)c3cc(C(=N)N)ccc3N2)c1` (single isomer, unassigned; enantiomer 2): the Ki was > 20000 nM in data set [1]; 0.2 nM in [3]; 0.42 nM in data set [4]; 910 nM in data set [5]; 4.6 nM in [6]; 1700 nM in data set [7]. For the same compound, the Ki in [8] amounted to 7900 nM; in [9] it was 200 nM; in [10] it was 340 nM; in data set [11] it was 14000 nM; in data set [12] it was 740 nM; in [13] it was 12600 nM. The Ki is 73 nM in data set [15]; 4.6 nM in data set [16]; 3200 nM in data set [19]; 2100 nM in data set [20]; 629 nM in [21]. The IC in data set [2] was >20 µM. Moreover, in data set [14], the Activity entry is given as “Non-toxic”. Further, the EC in data set [17] came out at 2.2 µM; in data set [18] it was 2400 nM. The ID50 in [22] was 0.95 mg/kg/h.

In general, Ki refers to a measure of affinity in units of concentration, obtained from inhibition or displacement.

The record behind these values is ChEMBL document CHEMBL3124891, “Tetrahydroquinoline derivatives as potent and selective factor XIa inhibitors” (J Med Chem, 2014).
